Source: ChEMBL document CHEMBL1201862, “PubChem BioAssay data set” (2004)
“And” between values parts separate entries of the source, which are not always exact repeats. Identical values can stand only once.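 Cells were grown in 96-well plates and exposed to each compound for 48 hours at five concentrations; endpoints were interpolated linearly between bracketing concentrations, or set to the highest concentration if not reached. At the GI50, growth is halved.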 The source made the active and inactive calls. Cut-off read from the data, not from the text of the source: active = GI50 up to about 1.1 µM and inactive = higher.

Tests used:
Assay in all cases: growth of human tumour cells (NCI), 48 h
786-0 = test system: 786-0
A498 = test system: A498
A549 = test system: A549
ACHN = test system: ACHN
BT-549 = test system: BT-549
CAKI-1 = test system: CAKI-1
CCRF-CEM = test system: CCRF-CEM
COLO 205 = test system: COLO 205
DU-145 = test system: DU-145
EKVX = test system: EKVX
HCC 2998 = test system: HCC 2998
HCT-116 = test system: HCT-116
HCT-15 = test system: HCT-15
HL-60 = test system: HL-60
HOP-92 = test system: HOP-92
HT-29 = test system: HT-29
Hs-578T = test system: Hs-578T
IGROV-1 = test system: IGROV-1
K562 = test system: K562
KM12 = test system: KM12
LOX IMVI = test system: LOX IMVI
M14 = test system: M14
MDA-MB-231 = test system: MDA-MB-231
MDA-MB-435 = test system: MDA-MB-435
MDA-N = test system: MDA-N
MOLT-4 = test system: MOLT-4
Malme-3M = test system: Malme-3M
NCI-H226 = test system: NCI-H226
NCI-H23 = test system: NCI-H23
NCI-H460 = test system: NCI-H460
NCI-H522 = test system: NCI-H522
NCI/ADR-RES = test system: NCI/ADR-RES
OVCAR-3 = test system: OVCAR-3
OVCAR-4 = test system: OVCAR-4
OVCAR-5 = test system: OVCAR-5
OVCAR-8 = test system: OVCAR-8
PC-3 = test system: PC-3
RPMI-8226 = test system: RPMI-8226
RXF 393 = test system: RXF 393
SF-268 = test system: SF-268
SF-295 = test system: SF-295
SF-539 = test system: SF-539
SK-MEL-28 = test system: SK-MEL-28
SK-MEL-2 = test system: SK-MEL-2
SK-MEL-5 = test system: SK-MEL-5
SK-OV-3 = test system: SK-OV-3
SN12C = test system: SN12C
SNB-19 = test system: SNB-19
SNB-75 = test system: SNB-75
SR = test system: SR
SW-620 = test system: SW-620
T47D = test system: T47D
TK-10 = test system: TK-10
U-251 = test system: U-251
UACC-257 = test system: UACC-257
UACC-62 = test system: UACC-62
UO-31 = test system: UO-31
HOP-62 = test system: HOP-62

COC(=O)C1=C(O)CCCC(CCC(C)=O)=C1
GI50 (786-0): 26.9 µM (inactive) | GI50 (A498): > 100 µM (inactive) | GI50 (A549): 95.3 µM (inactive) | GI50 (ACHN): 32.4 µM (inactive) | GI50 (BT-549): > 100 µM (inactive) | GI50 (CAKI-1): 47.6 µM (inactive) | GI50 (CCRF-CEM): 9.71 µM (inactive) | GI50 (COLO 205): 20.5 µM (inactive) | GI50 (DU-145): 41.2 µM (inactive) | GI50 (EKVX): 83.2 µM (inactive) | GI50 (HCC 2998): > 100 µM (inactive) | GI50 (HCT-116): 17.5 µM (inactive) | GI50 (HCT-15): 39.3 µM | GI50 (HL-60): 3.99 µM (inactive) | GI50 (HOP-92): 28.9 µM (inactive) | GI50 (HT-29): 57.4 µM (inactive) | GI50 (Hs-578T): > 100 µM (inactive) | GI50 (IGROV-1): 41.2 µM (inactive) | GI50 (K562): 31.3 µM (inactive) | GI50 (KM12): 80.2 µM (inactive) | GI50 (LOX IMVI): 38.2 µM (inactive) | GI50 (M14): 47 µM (inactive) | GI50 (MDA-MB-231): 73.8 µM (inactive) | GI50 (MDA-MB-435): 69.5 µM (inactive) | GI50 (MDA-N): 31.9 µM (inactive) | GI50 (MOLT-4): 36.5 µM (inactive) | GI50 (Malme-3M): 41.3 µM (inactive) | GI50 (NCI-H226): > 100 µM (inactive) | GI50 (NCI-H23): 94.4 µM (inactive) | GI50 (NCI-H460): 30.7 µM (inactive) | GI50 (NCI-H522): 12.5 µM (inactive) | GI50 (NCI/ADR-RES): > 100 µM (inactive) | GI50 (OVCAR-3): 48.8 µM (inactive) | GI50 (OVCAR-4): 46.9 µM (inactive) | GI50 (OVCAR-5): > 100 µM (inactive) | GI50 (OVCAR-8): 56.5 µM (inactive) | GI50 (PC-3): > 100 µM (inactive) | GI50 (RPMI-8226): 29.4 µM (inactive) | GI50 (RXF 393): 33.4 µM (inactive) | GI50 (SF-268): > 100 µM (inactive) | GI50 (SF-295): > 100 µM (inactive) | GI50 (SF-539): 22.2 µM (inactive) | GI50 (SK-MEL-28): > 100 µM (inactive) | GI50 (SK-MEL-2): > 100 µM (inactive) | GI50 (SK-MEL-5): > 100 µM (inactive) | GI50 (SK-OV-3): > 100 µM (inactive) | GI50 (SN12C): 41 µM (inactive) | GI50 (SNB-19): > 100 µM (inactive) | GI50 (SNB-75): 76.6 µM (inactive) | GI50 (SR): 21.8 µM (inactive) | GI50 (SW-620): 31.6 µM (inactive) | GI50 (T47D): 35.6 µM (inactive) | GI50 (TK-10): > 100 µM (inactive) | GI50 (U-251): 43.2 µM (inactive) | GI50 (UACC-257): 98.4 µM (inactive) | GI50 (UACC-62): 46 µM (inactive) | GI50 (UO-31): 39.9 µM (inactive)

CC1C(=O)OCC2=CCN3CCC(OC(=O)C(C)C1(C)O)C23 (stereo unspecified)
GI50 (786-0): > 100 µM (inactive) | GI50 (A498): > 100 µM (inactive) | GI50 (A549): > 100 µM (inactive) | GI50 (ACHN): > 100 µM (inactive) | GI50 (BT-549): > 100 µM (inactive) | GI50 (CAKI-1): > 100 µM (inactive) | GI50 (CCRF-CEM): > 100 µM (inactive) | GI50 (COLO 205): > 100 µM (inactive) | GI50 (DU-145): > 100 µM (inactive) | GI50 (EKVX): > 100 µM (inactive) | GI50 (HCC 2998): > 100 µM (inactive) | GI50 (HCT-116): > 100 µM (inactive) | GI50 (HCT-15): > 100 µM | GI50 (HL-60): > 100 µM (inactive) | GI50 (HOP-92): > 100 µM (inactive) | GI50 (HT-29): > 100 µM (inactive) | GI50 (Hs-578T): > 100 µM (inactive) | GI50 (IGROV-1): > 100 µM (inactive) | GI50 (K562): > 100 µM (inactive) | GI50 (KM12): > 100 µM (inactive) | GI50 (LOX IMVI): > 100 µM (inactive) | GI50 (M14): > 100 µM (inactive) | GI50 (MDA-MB-231): > 100 µM (inactive) | GI50 (MDA-MB-435): > 100 µM (inactive) | GI50 (MDA-N): > 100 µM (inactive) | GI50 (MOLT-4): > 100 µM (inactive) | GI50 (Malme-3M): > 100 µM (inactive) | GI50 (NCI-H226): > 100 µM (inactive) | GI50 (NCI-H23): > 100 µM (inactive) | GI50 (NCI-H460): > 100 µM (inactive) | GI50 (NCI-H522): > 100 µM (inactive) | GI50 (NCI/ADR-RES): > 100 µM (inactive) | GI50 (OVCAR-3): > 100 µM (inactive) | GI50 (OVCAR-4): > 100 µM (inactive) | GI50 (OVCAR-5): > 100 µM (inactive) | GI50 (OVCAR-8): > 100 µM (inactive) | GI50 (PC-3): > 100 µM (inactive) | GI50 (RPMI-8226): > 100 µM (inactive) | GI50 (SF-268): > 100 µM (inactive) | GI50 (SF-295): > 100 µM (inactive) | GI50 (SF-539): > 100 µM (inactive) | GI50 (SK-MEL-28): > 100 µM (inactive) | GI50 (SK-MEL-2): > 100 µM (inactive) | GI50 (SK-MEL-5): > 100 µM (inactive) | GI50 (SK-OV-3): > 100 µM (inactive) | GI50 (SN12C): > 100 µM (inactive) | GI50 (SNB-19): > 100 µM (inactive) | GI50 (SNB-75): > 100 µM (inactive) | GI50 (SW-620): > 100 µM (inactive) | GI50 (T47D): > 100 µM (inactive) | GI50 (TK-10): > 100 µM (inactive) | GI50 (U-251): > 100 µM (inactive) | GI50 (UACC-257): > 100 µM (inactive) | GI50 (UACC-62): > 100 µM (inactive) | GI50 (UO-31): > 100 µM (inactive)

CN1C=c2c3c(ccc2=C2C=CC4C=C5OCOC5=CC4=C21)OCO3 (stereo unspecified)
GI50 (786-0): 1.66 µM (inactive) and 1.31 µM (inactive) | GI50 (BT-549): 2.15 µM (inactive) and 1.58 µM (inactive) | GI50 (COLO 205): 1.89 µM (inactive) and 1.4 µM (inactive) | GI50 (HCT-116): 1.66 µM (inactive) and 1.02 µM (active) | GI50 (HCT-15): 1.41 µM and 1.7 µM | GI50 (HL-60): 285 nM (active) and 170 nM (active) | GI50 (HOP-62): 2.28 µM (inactive) and 1.55 µM (inactive) | GI50 (HT-29): 2.07 µM (inactive) and 1.62 µM (inactive) | GI50 (Hs-578T): 1.9 µM (inactive) and 2.65 µM (inactive) | GI50 (IGROV-1): 1.99 µM (inactive) and 1.65 µM (inactive) | GI50 (LOX IMVI): 1.8 µM (inactive) and 1.6 µM (inactive) | GI50 (M14): 1.21 µM (inactive) and 1.73 µM (inactive) | GI50 (MDA-MB-231): 2 µM (inactive) and 1.22 µM (inactive) | GI50 (MDA-MB-435): 1.06 µM (active) and 1.85 µM (inactive) | GI50 (MDA-N): 1.85 µM (inactive) and 1.35 µM (inactive) | GI50 (Malme-3M): 2.44 µM (inactive) and 1.6 µM (inactive) | GI50 (NCI-H23): 1.53 µM (inactive) and 2.98 µM (inactive) | GI50 (NCI-H522): 1.5 µM (inactive) and 1.45 µM (inactive) | GI50 (OVCAR-3): 871 nM (active) and 1.58 µM (inactive) | GI50 (OVCAR-4): 1.85 µM (inactive) and 3.11 µM (inactive) | GI50 (PC-3): 2.96 µM (inactive) and 1.52 µM (inactive) | GI50 (RXF 393): 1.98 µM (inactive) and 1.04 µM (active) | GI50 (SF-268): 2.42 µM (inactive) and 1.61 µM (inactive) | GI50 (SF-539): 2.28 µM (inactive) and 1.71 µM (inactive) | GI50 (SK-MEL-28): 1.59 µM (inactive) and 2.89 µM (inactive) | GI50 (SK-MEL-2): 2.69 µM (inactive) and 1.95 µM (inactive) | GI50 (SK-MEL-5): 2.44 µM (inactive) and 1.6 µM (inactive) | GI50 (SN12C): 1.92 µM (inactive) and 1.56 µM (inactive) | GI50 (SNB-75): 1.87 µM (inactive) and 3.72 µM (inactive) | GI50 (SW-620): 1.05 µM (active) and 1.58 µM (inactive) | GI50 (T47D): 1.75 µM (inactive) and 2.28 µM (inactive) | GI50 (U-251): 1.57 µM (inactive) and 2.34 µM (inactive) | GI50 (UACC-257): 3.15 µM (inactive) and 1.76 µM (inactive) | GI50 (UO-31): 2.1 µM (inactive) and 1.47 µM (inactive)
